# Reference: US20250120394A1, “SILANE SURFACTANT FOR AGRICULTURAL USE” (MOMENTIVE PERFORMANCE MATERIALS INC., priority 2023, published 2025)
# Where a name gives a salt, the structure may show the parent alone.
# Key:
# Assay type in all cases: in vivo
# [1] = system: Redroot pigweed (Amaranthus retroflexus, EPPO Code: AMARE); test: Effect of adjuvant on performance of 2,4-D Amine, lab spray trial, visual weed control; conditions: 2,4-D amine 0.25 wt % alone, no adjuvant
# Method: (§1) Spray Protocol: A lab spray trial was conducted to evaluate the effect of the silane compositions in accordance with the present technology on the performance of various herbicides.
# (§2) Target weeds were grown from seed, under controlled conditions in a “Caron Model 7301-50-2” Growth chamber using simulated full sunlight. Sprays were applied to the target weeds at the 4-6 leaf growth stage using a DeVries Generation 4—Research Track Sprayer with a T-Jet 8002E nozzle at an equivalent spray volume of 100 L/ha.
# SIL-8 was compared to a conventional trisiloxane alkoxylate (TSA-1) as a spray adjuvant, to improve the performance of 2,4-D Amine (herbicide) on AMARE. The spray protocol is described above. The 2,4-D Amine was applied at a sub lethal dose (25% of label rate) to show the impact of the adjuvant on performance. Assessment of weed control was made by a visual observation as compared to an untreated check.
# [2] = system: red banded stink bug (Piezodorus guildinii); test: Field trial: control of stink bug on green beans with Cefanol acephate plus adjuvant; conditions: Cefanol acephate 0.50 kg/ha alone
# Method: A composition of the present invention (SIL-8) was compared to a conventional trisiloxane alkoxylate (TSA-2) for the improvement of the insecticide acephate in the control of stink-bug.
# The experiment was conducted with a randomized block design, with 6 treatments (including the untreated check) and 4 repetitions. Each plot was of 12 m^2 in area. The data obtained were subjected to analysis of variance and the average of the treatments compared using the Tukey test to 5% probability test.
# During the trial there were […] evaluation periods: 0, 3, 5 and 7 Days After Application (DAA), for determining the number of red banded stink bugs in each plot evaluated.
# The treatments were applied using a CO2 pressurized Backpack sprayer, with 4 nozzles spaced 50 cm between each one. Nozzles type XR11002 (Flat Fan) and a spray volume 150 L·ha.
# [3] = system: Yellow Foxtail (Setaria pumila); test: Control of Yellow Foxtail with glyphosate-isopropylamine salt, visual weed control; conditions: glyphosate-isopropylamine salt 0.75% a.i. alone, adjuvant 0
# Method: as §1, §2
# Glyphosate-isopropylamine salt was applied at 0.75% a.i. to Yellow foxtail at a 15 cm growth-stage. The spray mixtures were applied either as herbicide alone, or in combination with the silane compositions SIL-6, SIL-9 and SIL-12 at an equivalent spray volume of 100 L/ha. A visual assessment of weed control was made at 7 and 14 Days After Treatment (DAT). The application method is the same as previously described.
compound,measurement,setting,value
"CNC.O=C(O)COc1ccc(Cl)cc1Cl [2,4-D amine, 2,4-D Amine]","Weed control of AMARE, 7-DAT",[1],46%
same,"Weed control of AMARE, 14-DAT",[1],55%
COP(=O)(NC(C)=O)SC (centres unmarked) [Acephate],"Eff. %, 1 DAA",[2],76.0%
same,"Eff. %, 3 DAA",[2],60.0%
same,"Eff. %, 5 DAA",[2],45.5%
same,"Eff. %, 7 DAA",[2],63.6%
same,"Number of red banded stink bug, 1 DAA",[2],0.5 b
same,"Number of red banded stink bug, 3 DAA",[2],0.7 b
same,"Number of red banded stink bug, 5 DAA",[2],0.5 a
same,"Number of red banded stink bug, 7 DAA",[2],0.3 b
same,"Eff. %, 0 DAA",[2]; 0 DAA (initial),0.0%
same,"Number of red banded stink bug, 0 DAA",[2]; 0 DAA (initial),1.8 a
"O=C(O)CNCP(=O)(O)O [Glyphosate, Glyphosate-isopropylamine salt]","Weed control of Yellow foxtail, 7 DAT",[3],20
same,"Weed control of Yellow foxtail, 14 DAT",[3],92
